Assays:
[1] = Induction of human ESC differentiation assessed as increase in microphthalmia-associated transcription factor expression measured over 8 weeks relative to total pigmented area; format: functional, Embryonic stem cell
[2] = Induction of human ESC differentiation assessed as appearance of pigmented area measured over 8 weeks relative to control; format: functional, Embryonic stem cell

Structure (SMILES): NC(=O)c1cccnc1 [NIACINAMIDE]
- Activity [1]: 5%
- Activity [2]: >70%

— ChEMBL document CHEMBL3421569, “Stemistry: the control of stem cells in situ using chemistry” (2015)
